Experimental data from patent US20250295615A1 (BOARD OF REGENTS, THE UNIVERSITY OF TEXAS SYSTEM, priority 2021, published 2025).

Assays:
[1] = Phase 1 clinical trial, safety laboratory values (week 2 minus baseline); format: in vivo, human
Excerpt: Laboratory Safety values. We perform laboratory analysis at baseline and at the end of the two-week study. We then subtracted the values (week 2-baseline) to obtain the differences for each participant.

[2] = human, in vivo
Protocol: (§1) Study Outcomes: Safety was compared to evaluate the number, frequency, duration, and relation of toxicity events to CURC and UA, as defined by the Common Terminology Criteria for Adverse Events (CTCAE) v 4.03. […] We also investigated the impact on the microbiome in a paired analysis for change and overall theme of imputed bacterial function.
Measurement of Compounds: The compounds and their metabolites were measured using an UHPLC-MS/MS system performed on a Hybrid quadrupole-Orbitrap mass spectrometer (Q Exactive, Thermo Scientific, Waltham, MA, USA) hyphenated with a Thermo Scientific Vanquish Flex ultrahigh-pressure liquid chromatography (UHPLC) system via electrospray ionization source. For the parallel reaction monitoring (PRM) scan, the resolution, auto gain control (AGC) target, and maximum injection time (IT) were set at 17500, 2e5, and 100 ms. The All-Ion Fragmentation (AIF) scan consisted of a scan range of m/z 100-750 with NCE 10. The resolution, AGC target, and maximum IT for the AIF scan were set at 70000, 3e6, and 200 ms, respectively.
Statistical Analysis: Demographics between groups was compared using the Fischer Exact test for categorical variables and the Student's t-test for continuous variables. Safety laboratory values were analyzed using a paired t-test for differences, with significance set at p<0.05. ANOVA was used to compare plasma levels of UA, CURC, and CURC metabolites. Least significant difference (LSD) was used as the post hoc analysis test to compare values between groups.

[3] = human, in vivo; remark: listed apart in the source
Excerpt: Population and Recruitment: We recruited healthy men enrolled in the SABOR study, which is a community-based prostate cancer screening cohort. The San Antonio Biomarkers of Risk (SABOR) study cohort was funded by the National Cancer Institute Early Detection Research Network-sponsored Clinical and Epidemiologic Validation Center since its nascent enrollment in 2000 (IRB #HSC20000030H). A separate IRB was approved for the phase 1 trial (IRB #HSC20190940H). Subjects had no prior diagnosis of prostate cancer at the time of enrollment and varied prostate cancer risk profiles. We used the local UT Health San Antonio Data Safety and Monitoring Board (DSMB).
as §1
Common Terminology Criteria for Adverse Events (CTCAE) v 4.03. […] A creatinine rise would indicate kidney dysfunction.

prostate tumor = details: 7-year period, men taking the drug daily; cited from earlier work
prostate cancer = details: mouse, in vivo; cited from earlier work
[4] = week 2 minus baseline, median (IQR), n = 6

## COc1cc(/C=C/C(=O)CC(=O)/C=C/c2ccc(O)c(OC)c2)ccc1O [Curcumin, curcumin]
[1]; curcumin arm participant baseline 45, CurcUA participant baseline 76
  GFR after 2 weeks, individual participant: 46
[1]; [4]
  Difference in ALT: −1.0 (−3.25 to 0.0)
  Difference in AST: 2.0 (−2.0 to 3.3)
  Difference in Albumin: 0.05 (−0.05 to 0.2)
  Difference in Alkaline Phosphatase: −2.0 (−5.5 to 9.3)
  Difference in Bicarbonate: −1.5 (−4.3 to 0.0)
  Difference in Bilirubin: −0.1 (−0.3 to 0.0)
  Difference in Calcium: 0.2 (−0.15 to 0.32)
  Difference in Chloride: −0.5 (−1.3 to 0.8)
  Difference in Creatinine: 0.07 (−0 07 to 0.16)
  Difference in Glomerular Filtration Rate (GFR): −5.5 (−12.0 to 4.5)
  Difference in Hematocrit: 0.25 (−1.45 to 2.35)
  Difference in Hemoglobin: 0.20 (−0.30 to 0.55)
  Difference in Platelets: 7.0 (−5 to 31.5)
  Difference in Sodium: 0.0 (−1.5 to 1.0)
  Difference in White blood cell (WBC): 0.15 (−0.43 to 0.68)
[2]
  Plasma levels in words (FIG. 2): Minimal amounts of the parent curcumin compound and large amounts of curcumin glucuronide
[3]
  Relationship To Study Treatment: Unlikely

## CC(C)(C)NC(=O)[C@H]1CC[C@H]2[C@@H]3CC[C@H]4NC(=O)C=C[C@]4(C)[C@H]3CC[C@]12C [Finasteride]
Prostate tumor
  Reduction in prostate tumor prevalence: 24.8%

## C[C@H]1[C@H](C)CC[C@]2(C(=O)O)CC[C@]3(C)C(=CC[C@@H]4[C@@]5(C)CC[C@H](O)C(C)(C)[C@@H]5CC[C@]43C)[C@H]12 [Ursolic Acid, ursolic acid]
[1]; [4]
  Difference in ALT: 1.5 (1.0 to 12.8)
  Difference in AST: 2.0 (−1.3 to 3.3)
  Difference in Albumin: 0.0 (−0.1 to 0.2)
  Difference in Alkaline Phosphatase: 2.5 (−2.5 to 5.0)
  Difference in Bicarbonate: 1.0 (−1.5 to 3.0)
  Difference in Bilirubin: 0.0 (−0.08 to 0.15)
  Difference in Calcium: 0.03 (−0.05 to 0.48)
  Difference in Chloride: −1.0 (−2.75 to 1.75)
  Difference in Creatinine: −0.08 (−0.33 to 0.12)
  Difference in Glomerular Filtration Rate (GFR): −3.5 (−10.3 to 3.5)
  Difference in Hematocrit: 1.55 (−0.85 to 2.85)
  Difference in Hemoglobin: 0.20 (−0.33 to 0.58)
  Difference in Platelets: 9.5 (2.5 to 27)
  Difference in Sodium: 0.5 (−1.5 to 2.25)
Prostate cancer
  Effect on prostate cancer in TRAMP mice: inhibited initiation, progression, and metastasis of prostate cancer
[2]
  Plasma levels in words (FIG. 2): modest absorption of ursolic acid
[2]; male, 14 day
  Median plasma values of CURC and its metabolites: 0.0 ng/mL
